Columns and labels:
Experiment in all cases: Transient transfection (transactivation) assay in CV-1 cells, GAL4-PPAR chimera, luciferase reporter
Format in all cases: cell-based
PPAR alpha = biological target: T1, PPAR alpha (Homo sapiens, UniProt Q07869)
T1 construct: expressed in transfected cells; host or cells: CV-1 cells
T1 sequence (Q07869 239-466 limits assumed): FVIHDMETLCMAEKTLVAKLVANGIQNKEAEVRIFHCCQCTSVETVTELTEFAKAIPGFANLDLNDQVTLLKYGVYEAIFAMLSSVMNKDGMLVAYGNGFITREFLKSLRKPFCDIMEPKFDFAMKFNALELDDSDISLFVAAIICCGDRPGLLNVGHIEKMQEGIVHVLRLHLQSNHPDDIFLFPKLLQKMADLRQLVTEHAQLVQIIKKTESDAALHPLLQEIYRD
In short: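 GAL4 DNA-binding domain fused to PPAR ligand binding domain, co-transfected into CV-1 cells with a luciferase reporter carrying four or five GAL4 sites. Replated cells in phenol-red free DME with 5% delipidated calf serum were treated with compound or 1% DMSO for 20-24 hours; luciferase read for EC50 and efficacy.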

PPAR gamma = biological target: T2, PPAR gamma (Homo sapiens, UniProt P37231)
T2 construct: expressed in transfected cells; host or cells: CV-1 cells
T2 sequence (P37231 238-503 limits assumed): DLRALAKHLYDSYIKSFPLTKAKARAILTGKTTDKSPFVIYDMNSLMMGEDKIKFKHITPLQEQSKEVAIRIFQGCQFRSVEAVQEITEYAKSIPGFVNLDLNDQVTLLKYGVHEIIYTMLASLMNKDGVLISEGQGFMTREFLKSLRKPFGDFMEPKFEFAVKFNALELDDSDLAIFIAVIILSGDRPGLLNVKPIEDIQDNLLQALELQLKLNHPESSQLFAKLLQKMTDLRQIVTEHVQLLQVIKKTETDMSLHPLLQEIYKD

PPAR delta = biological target: T3, PPAR delta (Homo sapiens, UniProt Q03181)
T3 construct: expressed in transfected cells; host or cells: CV-1 cells
T3 sequence (Q03181 211-439 limits assumed): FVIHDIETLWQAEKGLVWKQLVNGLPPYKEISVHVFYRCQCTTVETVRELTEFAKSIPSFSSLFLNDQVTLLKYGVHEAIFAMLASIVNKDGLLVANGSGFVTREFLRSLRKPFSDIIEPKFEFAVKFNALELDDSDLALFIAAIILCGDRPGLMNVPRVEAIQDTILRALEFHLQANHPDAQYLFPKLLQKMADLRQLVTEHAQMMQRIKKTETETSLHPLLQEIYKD

Compound	EC50 (PPAR alpha)	EC50 (PPAR gamma)	EC50 (PPAR delta)
O=C(O)Cc1cc(Br)cc(S(=O)(=O)N2CCN(c3ccc(OC(F)(F)F)cc3)CC2)c1 [Example 201, {3-Bromo-5-[4-(4-trifluoromethoxy-phenyl)-piperazine-1-sulfonyl]-phenyl}-acetic acid]	5 to 100 µM	5 to 100 µM	< 5 µM
COc1ccc(S(=O)(=O)N2CCN(c3ccc(C(F)(F)F)cc3)CC2)cc1CC(=O)O [Example 75, {2-Methoxy-5-[4-(4-trifluoromethyl-phenyl)-piperazine-1-sulfonyl]-phenyl}-acetic acid]	> 100 µM	5 to 100 µM	< 5 µM
Cc1ccc(S(=O)(=O)N2CCN(c3ncc(I)cn3)CC2)cc1CC(=O)O [Example 44, {5-[4-(5-Iodo-pyrimidin-2-yl)-piperazine-1-sulfonyl]-2-methyl-phenyl}-acetic acid]	< 5 µM	< 5 µM	< 5 µM
O=C(O)Cc1cc(C(F)(F)F)cc(S(=O)(=O)N2CCN(c3ccc(C(F)(F)F)cc3)CC2)c1 [Example 202, {3-Trifluoromethyl-5-[4-(4-trifluoromethyl-phenyl)-piperazine-1-sulfonyl]-phenyl}-acetic acid]	5 to 100 µM	5 to 100 µM	< 5 µM
Cc1ccc(S(=O)(=O)N2CCN(c3ccc(Cl)cc3)CC2)cc1CC(=O)O [Example 176, {5-[4-(4-Chloro-phenyl)-piperazine-1-sulfonyl]-2-methyl-phenyl}-acetic acid]	> 100 µM	5 to 100 µM	< 5 µM
Cc1ccc(S(=O)(=O)N2CCN(c3ccc(C(F)(F)F)cc3F)CC2)cc1CC(=O)O [Example 33]	< 5 µM	< 5 µM	< 5 µM
Cc1ccc(CC(=O)O)cc1S(=O)(=O)N1CCN(c2ccc(Cl)cc2)CC1 [Example 147, {3-[4-(4-Chloro-phenyl)-piperazine-1-sulfonyl]-4-methyl-phenyl}-acetic acid]	> 100 µM	5 to 100 µM	< 5 µM
C[C@@H]1CN(S(=O)(=O)c2cccc(CC(=O)O)c2)C[C@H](C)N1c1ccc(C(F)(F)F)cn1 [Example 227, 2-(3-(-3,5-Dimethyl-4-(5-(trifluoromethyl)pyridine-2-yl)piperazin-1-ylsulfonyl)phenyl)acetic acid]	5 to 100 µM	< 5 µM	< 5 µM
O=C(O)Cc1cccc(S(=O)(=O)N2CCN(c3ccc(C(F)(F)F)cn3)CC2)c1 [Example 4, {3-[4-(5-Trifluoromethyl-pyridin-2-yl)-piperazine-1-sulfonyl]-phenyl}-acetic acid]	5 to 100 µM	5 to 100 µM	< 5 µM
C[C@@H]1CN(c2ccc(OC(F)(F)F)cc2)C[C@H](C)N1S(=O)(=O)c1cc(CC(=O)O)cc(C(F)(F)F)c1 [Example 111, {3-[2,6-Dimethyl-4-(4-trifluoromethoxy-phenyl)-piperazine-1-sulfonyl]-5-trifluoromethyl-phenyl}-acetic acid]	5 to 100 µM	5 to 100 µM	< 5 µM
C[C@H]1CN(S(=O)(=O)c2cccc(CC(=O)O)c2)CCN1c1ccc(OC(F)(F)F)cc1 [Example 221, {3-[3-(s)-Methyl-4-(4-trifluoromethoxy-phenyl)-piperazine-1-sulfonyl]-phenyl}-acetic acid]	5 to 100 µM	5 to 100 µM	< 5 µM
Cc1ccc(S(=O)(=O)N2[C@H](C)CN(c3ccc(Cl)c(Cl)c3)C[C@@H]2C)cc1CC(=O)O [Example 83, {5-[4-(3,4-Dichloro-phenyl)-2,6-dimethyl-piperazine-1-sulfonyl]-2-methyl-phenyl}-acetic acid]	> 100 µM	> 100 µM	< 5 µM
Cc1cc(CC(=O)O)cc(S(=O)(=O)N2CCC(c3ccc(Cl)cc3)CC2)c1 [Example 185, {3-[4-(4-Chloro-phenyl)-piperidine-1-sulfonyl]-5-methyl-phenyl}-acetic acid]	> 100 µM	5 to 100 µM	5 to 100 µM
O=C(O)Cc1cc(Br)cc(S(=O)(=O)N2CCN(c3ccc(C(F)(F)F)cn3)CC2)c1 [Example 199, {3-Bromo-5-[4-(5-trifluoromethyl-pyridin-2-yl)-piperazine-1-sulfonyl]-phenyl}acetic acid]	5 to 100 µM	5 to 100 µM	< 5 µM
Cc1ccc(C)c(N2CCN(S(=O)(=O)c3cc(CC(=O)O)ccc3C)CC2)c1 [Example 160, {3-[4-(2,5-Dimethyl-phenyl)-piperazine-1-sulfonyl]-4-methyl-phenyl}-acetic acid]	> 100 µM	5 to 100 µM	> 100 µM
Cc1ccc(CC(=O)O)cc1S(=O)(=O)N1CCN(C(c2ccccc2)c2ccc(Cl)cc2)CC1 (stereo not drawn) [Example 164]	> 100 µM	5 to 100 µM	5 to 100 µM
C[C@H]1CN(c2ccc(C(F)(F)F)c(F)c2)CCN1S(=O)(=O)c1cccc(CC(=O)O)c1 [Example 215, {3-[4-(3-Fluoro-4-trifluoromethyl-phenyl)-2-(S)-methyl-piperazine-1-sulfonyl]-phenyl}-acetic acid]	5 to 100 µM	5 to 100 µM	< 5 µM
Cc1ccc(S(=O)(=O)N2C[C@H](C)N(c3ccc(C(F)(F)F)cn3)C[C@H]2C)cc1CC(=O)O (mixture of isomers) [Example 21, SR and RS-{5-[2,5-Dimethyl-4-(5-trifluoromethyl-pyridin-2-yl)-piperazine-1-sulfonyl]-2-methyl-phenyl}-acetic acid]	> 100 µM	5 to 100 µM	< 5 µM
COC(=O)[C@H]1CN(c2ccc(C(F)(F)F)cn2)CCN1S(=O)(=O)c1ccc(C)c(CC(=O)O)c1 [Example 29, (R)-1-(3-Carboxymethyl-4-methyl-benzenesulfonyl)-4-(5-trifluoromethyl-pyridin-2-yl)-piperazine-2-carboxylic acid methyl ester]	> 100 µM	> 100 µM	< 5 µM
Cc1ccc(S(=O)(=O)N2CCN(c3ccc(C(F)(F)F)cc3)CC2)cc1CC(=O)O [Example 183, {2-Methyl-5-[4-(4-trifluoromethyl-phenyl)-piperazine-1-sulfonyl]-phenyl}-acetic acid]	5 to 100 µM	5 to 100 µM	< 5 µM
Cc1ccc(S(=O)(=O)N2C[C@H](C)N(c3ccc(C(F)(F)F)cn3)[C@@H](C)C2)cc1CC(=O)O [Example 108, {5-[3,5-(S,S)-Dimethyl-4-(5-trifluoromethyl-pyridin-2-yl)-piperazine-1-sulfonyl]-2-methyl-phenyl}-acetic acid]	5 to 100 µM	5 to 100 µM	< 5 µM
Cc1ccc(S(=O)(=O)N2CCN(c3ccc(OC(F)(F)F)cc3)[C@@H](C)C2)cc1CC(=O)O [Example 99]	< 5 µM	5 to 100 µM	< 5 µM
Cc1ccc(S(=O)(=O)N2CCN(c3ncccn3)CC2)cc1CC(=O)O [Example 47]	> 100 µM	5 to 100 µM	5 to 100 µM
COc1ccc(CC(=O)O)cc1S(=O)(=O)N1CCN(c2ccc(C(F)(F)F)cn2)CC1 [Example 80]	> 100 µM	5 to 100 µM	< 5 µM
Cc1ccc(N2CCN(S(=O)(=O)c3cccc(CC(=O)O)c3)CC2)cc1C [Example 119, {3-[4-(3,4-Dimethyl-phenyl)-piperazine-1-sulfonyl]-phenyl}-acetic acid]	5 to 100 µM	5 to 100 µM	5 to 100 µM
Cc1ccc(CC(=O)O)cc1S(=O)(=O)N1CCN(CC2CCCCC2)CC1 [Example 161, [3-(4-Cyclohexylmethyl-piperazine-1-sulfonyl)-4-methyl-phenyl]-acetic acid]	> 100 µM	5 to 100 µM	> 100 µM
Cc1cccc(N2CCN(S(=O)(=O)c3ccc(C)c(CC(=O)O)c3)CC2C)c1 (stereo not drawn) [Example 177, [2-Methyl-5-(3-methyl-4-m-tolyl-piperazine-1-sulfonyl)-phenyl]-acetic acid]	> 100 µM	5 to 100 µM	5 to 100 µM
Cc1ccc(S(=O)(=O)N2CCN(c3ccc([N+](=O)[O-])cn3)CC2)cc1CC(=O)O [Example 56, {2-Methyl-5-[4-(5-nitro-pyridin-2-yl)-piperazine-1-sulfonyl]-phenyl}-acetic acid]	> 100 µM	5 to 100 µM	< 5 µM
Cc1cc(CC(=O)O)cc(S(=O)(=O)N2CCN(c3ccc(OC(F)(F)F)cc3)C[C@@H]2C)c1 [Example 213, {3-Methyl-5-[2-(S)-methyl-4-(4-trifluoromethoxy-phenyl)-piperazine-1-sulfonyl]phenyl}-acetic acid]	5 to 100 µM	5 to 100 µM	< 5 µM
